In patent US7803774B2, “Modulators of β-amyloid peptide aggregation” (Praecis Pharmaceuticals, Inc., priority 1999, dated 2010):
Structures can show the parent of a compound that is named as a salt.

How the values were obtained:
Aβ1-40 [1] = molecular target: T1, Aβ1-40 (Homo sapiens, UniProt P05067); assay: Nucleation assay (turbidity, change in lag time of Aβ aggregation); format: biochemical; settings: for Nucleation assay data 0.3 μM: 0.3 μM test compound; for Nucleation assay data 0.3 μM / Nucleation assay data 1 μM / Nucleation assay data 3 μM: ΔLag ratio to control; for Nucleation assay data 0.3 μM / Nucleation assay data 1 μM / Nucleation assay data 3 μM / Nucleation assay data: Table II; for Nucleation assay data 1 μM: 1 μM test compound; for Nucleation assay data 3 μM: 3 μM test compound; for Nucleation assay data 3 μM / Nucleation assay Δ lag 1.25 μM / Nucleation assay Δ lag 5 μM / Nucleation assay Δ lag […]: 5 μM Aβ1-40; for Nucleation assay data: footnote *: measured at 1.25 μM of compound; for Nucleation assay Δ lag 1.25 μM: 1.25 μM test compound; for Nucleation assay Δ lag 1.25 μM / Nucleation assay Δ lag […]: ratio to control lag time; for Nucleation assay Δ lag 5 μM: 5 μM test compound, ratio of lag time with compound to lag time of control; for Nucleation assay Δ lag […]: […] test compound
T1 construct: first Aβ1-40 peptide is dissolved in HFIP
From the text: The nucleation assay is employed to determine the ability of test compounds to alter (e.g. inhibit) the early events in formation of β-AP fibers from monomeric β-AP. Characteristic of a nucleated polymerization mechanism, a lag time is observed prior to nucleation, after which the peptide rapidly forms fibers as reflected in a linear rise in turbidity. The time delay before polymerization of β-AP monomer can be quantified as well as the extent of formation of insoluble fiber by light scattering (turbidity). Polymerization reaches equilibrium when the maximum turbidity reaches a plateau. The turbidity of a solution of natural β-AP in the absence or presence of various concentrations of a β-amyloid modulator compound is determined by measuring the apparent absorbance of the solution at 405 nm (A405nm) over time. The threshold of sensitivity for the measurement of turbidity is in the range of 15-20 μM β-AP. […] This assay can be performed using stirring or shaking to accelerate polymerization, thereby increasing the speed of the assay. Moreover the assay can be adapted to a 96-well plate format to screen multiple compounds.
To perform the nucleation assay, first Aβ1-40 peptide is dissolved in HFIP (1,1,1,3,3,3-Hexafluoro-2-propanol; Aldrich 10,522-8) at a concentration of 2 mg peptide/ml and incubated at room temperature for 30 min. HFIP-solubilized peptide is sonicated in a waterbath sonicator for 5 min at highest setting, then evaporated to dryness under a stream of argon. The peptide film is resuspended in anhydrous dimethylsulfoxide (DMSO) at a concentration of 6.9 mg/ml (25× concentration), sonicated for 5 min as before, then filtered through a 0.2 micron nylon syringe filter (VWR cat. No. 28196-050). Test compounds are dissolved in DMSO at a 100× concentration. Four volumes of 25×Aβ1-40 peptide in DMSO are combined with one volume of test compound in DMSO in a glass vial, and mixed to produce a 1:1 molar ratio of AP peptide to test compound. For different molar ratios, test compounds are diluted with DMSO prior to addition to Aβ1-40, in order to keep the final DMSO and Aβ1-40 concentrations constant. […] Ten microliters of the mixture is then added to the bottom of a well of a Corning Costar ultra low binding 96-well plate (Coming Costar, Cambridge Mass.; cat. No. 2500). Ninety microliters of water is added to the well, the plate is shaken on a rotary shaken at a constant speed at room temperature for 30 seconds, an additional 100 μl of 2×PTL buffer (20 mM NaH2PO4, 300 mM NaCl, pH 7.4) is added to the well, the plate is reshaken for 30 seconds and a baseline (t=0) turbidity reading is taken by measuring the apparent absorbance at 405 nm using a Bio-Rad Model 450 Microplate Reader. The plate is then returned to the shaker and shaken continuously for 5 hours. Turbidity readings are taken at 15 minute intervals.
β-amyloid aggregation in the absence of any modulators results in enhanced turbidity of the natural β-AP solution (i.e., an increase in the apparent absorbance at 405 nm over time).
The modulator compounds were evaluated in nucleation assays utilizing 5 μM Aβ1-40 and either 5 μM, 2.5 μM, 1.25 μM, 3 μM, 1 μM, or 0.3 μM test compound. The change in lag time (ΔLag) is presented as the ratio of the lag time observed in the of the test compound (at either 5 μM, 2.5 μM, 1.25 μM, 3 μM, 1 μM, or 0.3 μM) to the lag time of the control.

Aβ1-40 [2] = molecular target: T1, Aβ1-40; assay: as above; format: biochemical; settings: for Nucleation assay data: footnote *: measured at 0.6 μM of compound, Table II
[3] = BUI#77: IN VIVO: IV BRAIN LEVELS @ 1 HOUR post 1 mL x 1 min IV
Protocol: Table printed on a drawing sheet, Fig. 1
Title: BUI#77: IN VIVO: IV BRAIN LEVELS @ 1 HOUR post 1 mL x 1 min IV
The patent's description of the figure: FIG. 1 is a table depicting the results from a brain uptake assay.
First reader's note: Rows with only a Structure cell (l-v-f-f-a, TFA. l-v-f-f-l, TFA. l-f-f-v-l) are bold group headings for the rows below them; the asterisk printed in the gap before the UNIT DOSE block is kept in its own unheaded column.

T1 sequence (P05067 672-711): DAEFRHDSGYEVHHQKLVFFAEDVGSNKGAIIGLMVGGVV

With 2TFA.H-(lfkvl)-NH2 [PPI-1321] the “Nucleation assay data 0.3 μM” value (Aβ1-40 [1]) was less than 1, the “Nucleation assay data 1 μM” value (Aβ1-40 [1]) was less than 1 and the “Nucleation assay data 3 μM” value (Aβ1-40 [1]) was less than 1.
In the case of 2TFA.H-lvf-NH-NH-fvl-H [PPI-1125], the “Nucleation assay data” value (Aβ1-40 [1]) is reported as greater than 2.5 and the “Nucleation assay data” value (Aβ1-40 [2]) is reported as 2.0.
In the case of `CC(C)C[C@@H](N)C(=O)N[C@H](Cc1ccccc1)C(=O)N[C@H](Cc1ccccc1)C(=O)N[C@@H](C(=O)N[C@H](CC(C)C)C(N)=O)C(C)C` [578 | 578, TFA. H-(lffvl)-NH2], the “MAX SOLUBILITY | Brain Levels (nM) + CsA | mean” value [3] is reported as 57 nM, the “MAX SOLUBILITY | Brain Levels (nM) | mean” value [3] is reported as 7.6 nM and the “UNIT DOSE (2mg/kg IV) | (+)CsA” value [3] is reported as 16 nM. For the same compound, the “UNIT DOSE (2mg/kg IV) | ALONE” value [3] was 2 nM.
In the case of `CC(C)C[C@@H](N)C(=O)N[C@@H](C(=O)N[C@H](Cc1ccccc1)C(=O)N[C@H](Cc1ccccc1)C(=O)N[C@H](C)C(N)=O)C(C)C` [655 | 655, TFA. H-(lvffa)-NH2], the “MAX SOLUBILITY | Brain Levels (nM) + CsA | mean” value [3] is reported as 50 nM, the “MAX SOLUBILITY | Brain Levels (nM) | mean” value [3] is reported as 7.9 nM and the “UNIT DOSE (2mg/kg IV) | (+)CsA” value [3] is reported as 22 nM. For the same compound, the “UNIT DOSE (2mg/kg IV) | ALONE” value [3] was 3 nM.
For `CN[C@H](CC(C)C)C(=O)N[C@@H](C(=O)N[C@H](Cc1ccccc1)C(=O)N[C@H](Cc1ccccc1)C(=O)N[C@H](C)C(N)=O)C(C)C` [1019 | 1019, TFA. N-methyl-(lvffa)-NH2], the “MAX SOLUBILITY | Brain Levels (nM) + CsA | mean” value [3] was 29 nM, the “MAX SOLUBILITY | Brain Levels (nM) | mean” value [3] was 7.2 nM and the “UNIT DOSE (2mg/kg IV) | (+)CsA” value [3] was 17 nM. For the same compound, the “UNIT DOSE (2mg/kg IV) | ALONE” value [3] was 4 nM.
With `CC(C)C[C@@H](N)C(=O)N[C@H](Cc1c(F)c(F)c(F)c(F)c1F)C(=O)N[C@H](Cc1ccccc1)C(=O)N[C@@H](C(=O)N[C@H](CC(C)C)C(N)=O)C(C)C` [PPI-1324, TFA.H-(l-[F5]f-fvl)-NH2] the “MAX SOLUBILITY | Brain Levels (nM) + CsA | mean” value [3] was 23 nM, the “MAX SOLUBILITY | Brain Levels (nM) | mean” value [3] was 4.1 nM and the “UNIT DOSE (2mg/kg IV) | (+)CsA” value [3] was 9 nM. For the same compound, the “UNIT DOSE (2mg/kg IV) | ALONE” value [3] was 2 nM.
With TFA.H-(Glvffl)-NH2 [PPI-1013] the “Nucleation assay Δ lag” value (Aβ1-40 [1]; footnote #: measured at 1.25 μM of compound, Table I) was greater than 3 and the “Nucleation assay Δ lag” value (Aβ1-40 [2]; footnote #: measured at 0.6 μM of compound, Table I) was 2.
For TFA.H-(lf-D-Cha-vl)-NH2 [PPI-1318], the “Nucleation assay data 0.3 μM” value (Aβ1-40 [1]) was 1, the “Nucleation assay data 1 μM” value (Aβ1-40 [1]) was 2 and the “Nucleation assay data 3 μM” value (Aβ1-40 [1]) was greater than 5.
For TFA.H-(lf-[F5]f-vl)-NH2 [PPI-1320], the “Nucleation assay data 0.3 μM” value (Aβ1-40 [1]) was 1, the “Nucleation assay data 1 μM” value (Aβ1-40 [1]) was 3 and the “Nucleation assay data 3 μM” value (Aβ1-40 [1]) was greater than 5.
For TFA.H-(lvffa)-dimethylamide [PPI-993], the “Nucleation assay Δ lag 1.25 μM” value (Aβ1-40 [1]) was 1, the “Nucleation assay Δ lag 5 μM” value (Aβ1-40 [1]) was 1 and the “Nucleation assay Δ lag […]” value (Aβ1-40 [1]) was 1.
For TFA.H-(lvffa)-isopropylamide [PPI-992], the “Nucleation assay Δ lag 1.25 μM” value (Aβ1-40 [1]) was 1, the “Nucleation assay Δ lag 5 μM” value (Aβ1-40 [1]) was 3 and the “Nucleation assay Δ lag […]” value (Aβ1-40 [1]) was 1.
In the case of TFA.N,N-diethyl-(Gaffvl)-NH2 [PPI-1005], the “Nucleation assay Δ lag 1.25 μM” value (Aβ1-40 [1]) is reported as 1, the “Nucleation assay Δ lag 5 μM” value (Aβ1-40 [1]) is reported as 3 and the “Nucleation assay Δ lag […]” value (Aβ1-40 [1]) is reported as 3.
With TFA.N,N-diethyl-(affvl)-NH2 [PPI-1006] the “Nucleation assay Δ lag 1.25 μM” value (Aβ1-40 [1]) was 1, the “Nucleation assay Δ lag 5 μM” value (Aβ1-40 [1]) was 1 and the “Nucleation assay Δ lag […]” value (Aβ1-40 [1]) was 1.
In the case of TFA.N,N-dimethyl-(Gaffv1)-NH2 [PPI-803], the “Nucleation assay Δ lag 1.25 μM” value (Aβ1-40 [1]) is reported as less than 1, the “Nucleation assay Δ lag 5 μM” value (Aβ1-40 [1]) is reported as less than 1 and the “Nucleation assay Δ lag […]” value (Aβ1-40 [1]) is reported as less than 1.
With TFA.N,N-dimethyl-(affvl)-NH2 [PPI-913] the “Nucleation assay Δ lag 1.25 μM” value (Aβ1-40 [1]) was 1, the “Nucleation assay Δ lag 5 μM” value (Aβ1-40 [1]) was 1 and the “Nucleation assay Δ lag […]” value (Aβ1-40 [1]) was 1.
In the case of TFA.N-ethyl-(Gaffvl)-NH2 [PPI-969], the “Nucleation assay Δ lag 1.25 μM” value (Aβ1-40 [1]) is reported as 3, the “Nucleation assay Δ lag 5 μM” value (Aβ1-40 [1]) is reported as greater than 5 and the “Nucleation assay Δ lag […]” value (Aβ1-40 [1]) is reported as greater than 5.
For TFA.N-isopropyl-(Gaffvl)-NH2 [PPI-970], the “Nucleation assay Δ lag 1.25 μM” value (Aβ1-40 [1]) was 1, the “Nucleation assay Δ lag 5 μM” value (Aβ1-40 [1]) was greater than 5 and the “Nucleation assay Δ lag […]” value (Aβ1-40 [1]) was greater than 5.
In the case of TFA.N-methyl-(Gaffvl)-NH2 [PPI-968], the “Nucleation assay Δ lag 1.25 μM” value (Aβ1-40 [1]) is reported as 2, the “Nucleation assay Δ lag 5 μM” value (Aβ1-40 [1]) is reported as greater than 5 and the “Nucleation assay Δ lag […]” value (Aβ1-40 [1]) is reported as greater than 5.
In the case of TFA.N-methyl-(lvffl)-NH2 [PPI-1019], the “Nucleation assay data” value (Aβ1-40 [1]) is reported as greater than 2.5 and the “Nucleation assay data” value (Aβ1-40 [2]) is reported as 2.0.
